In patent publication US9944645B2, “Imidazotriazines and imidazopyrimidines as kinase inhibitors” (Incyte Holdings Corporation, priority 2006, dated 2018):

target: c-Met kinase (h-Met; histidine-tagged c-Met catalytic domain fusion protein) (Homo sapiens (Human), UniProt P08581); assay: In Vitro c-Met Kinase Enzyme Assays; format: biochemical; conditions: phosphorylation of poly Glu-Tyr, 5 μM ATP, 25 minutes at 30° C.
Method in brief: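 His-tagged c-Met catalytic domain reacted 25 min at 30° C, within the linear initial-rate range. Phosphotyrosine detected by ELISA with peroxidase-labeled anti-phospho-tyrosine antibody and TMB, OD read at 450 nm (540 nm correction); IC50 from curve fit.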

Sequence of c-Met kinase (h-Met; histidine-tagged c-Met catalytic domain fusion protein) (P08581 1078-1345): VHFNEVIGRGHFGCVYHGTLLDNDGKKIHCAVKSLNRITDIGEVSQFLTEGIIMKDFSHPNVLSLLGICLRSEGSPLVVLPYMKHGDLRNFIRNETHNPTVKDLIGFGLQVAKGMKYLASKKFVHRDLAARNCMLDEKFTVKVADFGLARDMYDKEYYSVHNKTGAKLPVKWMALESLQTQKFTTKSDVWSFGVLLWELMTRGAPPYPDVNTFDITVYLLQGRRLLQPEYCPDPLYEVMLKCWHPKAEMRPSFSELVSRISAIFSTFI

| IC50 | Compound |
| --- | --- |
| < 500 nM | CCOC(=O)N1CCC(n2cc(-c3cnc4ncc(C5(c6ccc7ncccc7c6)CC5)n4c3)cn2)CC1 [Example 83, Ethyl 4-{4-[3-(1-quinolin-6-ylcyclopropyl)imidazo[1,2-a]pyrimidin-6-yl]-1H-pyrazol-1-yl}piperidine-1-carboxylate] |
| < 500 nM | CN(C)C(=O)Cn1cc(-c2ccc(-c3cnc4ncc(C5(c6ccc7ncccc7c6)CC5)n4c3)cc2F)cn1 [Example 84, 2-(4-{2-Fluoro-4-[3-(1-quinolin-6-ylcyclopropyl)imidazo[1,2-a]pyrimidin-6-yl]phenyl}-1H-pyrazol-1-yl)-N,N-dimethylacetamide] |
| < 500 nM | CNC(=O)c1ccc(-c2ccc(-c3cnc4ncc(C5(c6ccc7ncccc7c6)CC5)n4c3)cc2F)cn1 [Example 85, 5-{2-Fluoro-4-[3-(1-quinolin-6-ylcyclopropyl)imidazo[1,2-a]pyrimidin-6-yl]phenyl}-N-methylpyridine-2-carboxamide] |
| < 500 nM | CN(C)C(=O)c1ccc(-c2ccc(-c3cnc4ncc(C5(c6ccc7ncccc7c6)CC5)n4c3)cc2F)cn1 [Example 86, 5-{2-Fluoro-4-[3-(1-quinolin-6-ylcyclopropyl)imidazo[1,2-a]pyrimidin-6-yl]phenyl}-N,N-dimethylpyridine-2-carboxamide] |
| < 500 nM | Cn1cc(-c2ccc(-c3cnc4ncc(C5(c6ccc7ncccc7c6)CC5)n4c3)cc2F)cn1 [Example 87, 6-(1-{6-[3-Fluoro-4-(1-methyl-1H-pyrazol-4-yl)phenyl]imidazo[1,2-a]pyrimidin-3-yl}cyclopropyl)quinoline] |
| < 500 nM | c1cnc2ccc(C3(c4cnc5ncc(-c6cnn(C7CCOC7)c6)cn45)CC3)cc2c1 (stereo not shown) [Example 88, 6-(1-{6-[1-(Tetrahydrofuran-3-yl)-1H-pyrazol-4-yl]imidazo[1,2-a]pyrimidin-3-yl}cyclopropyl)quinoline] |
| < 3000 nM | c1ccc(CN2CCC(n3cc(-c4cnc5ncc(C6(c7ccc8ncccc8c7)CC6)n5c4)cn3)C2)cc1 (stereo not shown) [Example 89, 6-(1-{6-[1-(1-Benzylpyrrolidin-3-yl)-1H-pyrazol-4-yl]imidazo[1,2-a]pyrimidin-3-yl}cyclopropyl)quinoline] |
| < 500 nM | Cn1cc(-c2cnc3ncc(C4(c5ccc6ncccc6c5)CC4)n3c2)cn1 [Example 90, 6-{1-[6-(1-Methyl-1H-pyrazol-4-yl)imidazo[1,2-a]pyrimidin-3-yl]cyclopropyl}quinoline] |
| < 500 nM | CN(C)C(=O)N1CCC(n2cc(-c3cnc4ncc(C5(c6ccc7ncccc7c6)CC5)n4c3)cn2)CC1 [Example 91, N,N-Dimethyl-4-{4-[3-(1-quinolin-6-ylcyclopropyl)imidazo[1,2-a]pyrimidin-6-yl]-1H-pyrazol-1-yl}piperidine-1-carboxamide] |
| < 500 nM | OC1CCC(n2cc(-c3cnc4ncc(C5(c6ccc7ncccc7c6)CC5)n4c3)cn2)CC1 (stereo not shown) [Example 92, 4-{4-[3-(1-Quinolin-6-ylcyclopropyl)imidazo[1,2-a]pyrimidin-6-yl]-1H-pyrazol-1-yl}cyclohexanol] |
| < 500 nM | N#CCn1cc(-c2cnc3ncc(C4(c5ccc6ncccc6c5)CC4)n3c2)cn1 [Example 93, {4-[3-(1-Quinolin-6-ylcyclopropyl)imidazo[1,2-a]pyrimidin-6-yl]-1H-pyrazol-1-yl}acetonitrile] |
| < 500 nM | CNC(=O)c1ccc(-c2ccc(-c3cnc4ncc(C5(c6ccc7ncccc7c6)CC5)n4n3)cc2)cn1 [Example 94, N-Methyl-5-{4-[7-(1-quinolin-6-ylcyclopropyl)imidazo[1,2-b][1,2,4]triazin-2-yl]phenyl}pyridine-2-carboxamide] |
| < 500 nM | c1cnc2ccc(C3(c4cnc5ncc(-c6ccc(-c7cncnc7)cc6)nn45)CC3)cc2c1 [Example 95, 6-{1-[2(4-Pyrimidin-5-yl-phenyl)imidazo[1,2-b][1,2,4]triazin-7-yl]cyclopropyl}quinoline] |
| < 500 nM | CC(=O)N1CC=C(c2ccc(-c3cnc4ncc(C5(c6ccc7ncccc7c6)CC5)n4n3)cc2)CC1 [Example 96, 6-(1-{2-[4-(1-Acetyl-1,2,3,6-tetrahydropyridin-4-yl)phenyl]imidazo[1,2-b][1,2,4]triazin-7-yl}cyclopropyl)quinoline] |
| < 500 nM | CS(=O)(=O)N1CC=C(c2ccc(-c3cnc4ncc(C5(c6ccc7ncccc7c6)CC5)n4n3)cc2)CC1 [Example 97, 6-[1-(2-{4-[1-(Methylsulfonyl)-1,2,3,6-tetrahydropyridin-4-yl]phenyl}imidazo[1,2-b][1,2,4]triazin-7-yl)cyclopropyl]quinoline] |
| < 500 nM | CN(C)C(=O)c1ccc(-c2ccc(-c3cnc4ncc(C5(c6ccc7ncccc7c6)CC5)n4n3)cc2)cn1 [Example 98, N,N-Dimethyl-5-{4-[7-(1-quinolin-6-ylcyclopropyl)imidazo[1,2-b][1,2,4]triazin-2-yl]phenyl}pyridine-2-carboxamide] |
| < 500 nM | c1cnc2ccc(C3(c4cnc5ncc(-c6ccc(-n7ccnc7)cc6)nn45)CC3)cc2c1 [Example 99, 6-(1-{2-[4-(1H-Imidazol-1-yl)phenyl]imidazo[1,2-b][1,2,4]triazin-7-yl}cyclopropyl)-quinoline] |

| IC50 | Compound |
| --- | --- |
| < 500 nM | O=C(N[C@H]1CC[C@H](O)CC1)c1ccc(-c2cnc3ncc(C4(c5ccc6ncccc6c5)CC4)n3n2)cc1F [Example 100, 2-Fluoro-N-(trans-4-hydroxycyclohexyl)-4-[7-(1-quinolin-6-ylcyclopropyl)imidazo[1,2-b][1,2,4]triazin-2-yl]benzamide] |
| < 500 nM | O=C(NC1CC1)c1ccc(-c2cnc3ncc(C4(c5ccc6ncccc6c5)CC4)n3n2)cc1F [Example 101, N-Cyclopropyl-2-fluoro-4-[7-(1-quinolin-6-ylcyclopropyl)imidazo[1,2-b][1,2,4]triazin-2-yl]benzamide] |
| < 500 nM | CNC(=O)c1ccc(-c2cnc3ncc(C4(c5ccc6ncccc6c5)CC4)n3n2)cc1F [Example 102, 2-Fluoro-N-methyl-4-[7-(1-quinolin-6-ylcyclopropyl)imidazo[1,2-b][1,2,4]triazin-2-yl]benzamide] |
| < 500 nM | COCC1(NC(=O)c2ccc(-c3cnc4ncc(C5(c6ccc7ncccc7c6)CC5)n4n3)cc2F)CC1 [Example 103, 2-Fluoro-N-[1-(methoxymethyl)cyclopropyl]-4-[7-(1-quinolin-6-ylcyclopropyl)imidazo[1,2-b][1,2,4]triazin-2-yl]benzamide] |
| < 500 nM | NC(=O)c1ccc(-c2cnc3ncc(C4(c5ccc6ncccc6c5)CC4)n3n2)cc1F [Example 104, 2-Fluoro-4-(7-(1-(quinolin-6-yl)cyclopropyl)imidazo[1,2-b][1,2,4]triazin-2-yl)benzamide] |
| < 500 nM | O=C(NCC1CCCO1)c1ccc(-c2cnc3ncc(C4(c5ccc6ncccc6c5)CC4)n3n2)cc1 (stereo not shown) [Example 105, 4-[7-(1-Quinolin-6-ylcyclopropyl)imidazo[1,2-b][1,2,4]triazin-2-yl]-N-(tetrahydrofuran-2-ylmethyl)benzamide] |
| < 500 nM | O=C(NCc1ccccn1)c1ccc(-c2cnc3ncc(C4(c5ccc6ncccc6c5)CC4)n3n2)cc1 [Example 106, N-(Pyridin-2-ylmethyl)-4-[7-(1-quinolin-6-ylcyclopropyl)imidazo[1,2-b][1,2,4]triazin-2-yl]benzamide] |
| < 500 nM | O=C(NC1CC1)c1ccc(-c2cnc3ncc(C4(c5ccc6ncccc6c5)CC4)n3n2)cc1 [Example 107] |
| < 500 nM | O=C(NC1CCC1)c1ccc(-c2cnc3ncc(C4(c5ccc6ncccc6c5)CC4)n3n2)cc1 [Example 108, N-Cyclobutyl-4-[7-(1-quinolin-6-ylcyclopropyl)imidazo[1,2-b][1,2,4]triazin-2-yl]benzamide] |
| < 500 nM | O=C(NC1(c2ccccn2)CC1)c1ccc(-c2cnc3ncc(C4(c5ccc6ncccc6c5)CC4)n3n2)cc1 [Example 109, N-(1-Pyridin-2-ylcyclopropyl)-4-[7-(1-quinolin-6-ylcyclopropyl)imidazo[1,2-b][1,2,4]triazin-2-yl]benzamide] |
| < 500 nM | CC(C)(CO)NC(=O)c1ccc(-c2cnc3ncc(C4(c5ccc6ncccc6c5)CC4)n3n2)cc1 [Example 110, N-(2-Hydroxy-1,1-dimethylethyl)-4-[7-(1-quinolin-6-ylcyclopropyl)imidazo[1,2-b][1,2,4]triazin-2-yl]benzamide] |
| < 500 nM | O=C(N[C@H](CO)Cc1ccccc1)c1ccc(-c2cnc3ncc(C4(c5ccc6ncccc6c5)CC4)n3n2)cc1 [Example 111, N-[(1S)-1-Benzyl-2-hydroxyethyl]-4-[7-(1-quinolin-6-ylcyclopropyl)imidazo[1,2-b][1,2,4]triazin-2-yl]benzamide] |
| < 500 nM | O=C(c1ccc(-c2cnc3ncc(C4(c5ccc6ncccc6c5)CC4)n3n2)cc1)N1CC[C@@H](O)C1 [Example 112, (3R)-1-{4-[7-(1-quinolin-6-ylcyclopropyl)imidazo[1,2-b][1,2,4]triazin-2-yl]benzoyl}pyrrolidin-3-ol] |
| < 500 nM | O=C(NC1CCOCC1)c1ccc(-c2cnc3ncc(C4(c5ccc6ncccc6c5)CC4)n3n2)cc1 [Example 113, 4-(7-(1-(Quinolin-6-yl)cyclopropyl)imidazo[1,2-b][1,2,4]triazin-2-yl)-N-(tetrahydro-2H-pyran-4-yl)benzamide] |
| < 500 nM | CN(C(=O)c1ccc(-c2cnc3ncc(C4(c5ccc6ncccc6c5)CC4)n3n2)cc1)C1CC1 [Example 114, N-Cyclopropyl-N-methyl-4-[7-(1-quinolin-6-ylcyclopropyl)imidazo[1,2-b][1,2,4]triazin-2-yl]benzamide] |
| < 500 nM | COCC1(NC(=O)c2ccc(-c3cnc4ncc(C5(c6ccc7ncccc7c6)CC5)n4n3)cc2)CC1 [Example 115, N-[1-(Methoxymethyl)cyclopropyl]-4-[7-(1-quinolin-6-ylcyclopropyl)imidazo[1,2-b][1,2,4]triazin-2-yl]benzamide] |
| < 500 nM | COCC1(NC(=O)c2ccc(-c3cnc4ncc(C5(c6ccc7ncccc7c6)CC5)n4n3)cc2)CCC1 [Example 116, N-[1-(Methoxymethyl)cyclobutyl]-4-[7-(1-quinolin-6-ylcyclopropyl)imidazo[1,2-b][1,2,4]triazin-2-yl]benzamide] |
